Measurements reported in ChEMBL document CHEMBL1201862, “PubChem BioAssay data set” (2004).
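Cultured in 96-well plates, cells were exposed to test compound for 48 hours across five concentrations. Here, GI50 denotes the concentration required for 50% inhibition of growth.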 Activity calls are given as the source filed them. No stated cut-off is given here; in the data, active = GI50 up to about 1.1 µM and inactive = higher. Peptide text beside a SMILES is read from it. * marks the point of attachment. Cbz = O=C(OCc1ccccc1)*

Experiments:
Experiment in all cases: NCI-60 cell line screen, 48 h
Malme-3M = test system: Malme-3M
LOX IMVI = test system: LOX IMVI
UACC-257 = test system: UACC-257
SF-268 = test system: SF-268
UACC-62 = test system: UACC-62
NCI-H23 = test system: NCI-H23
RXF 393 = test system: RXF 393
HL-60 = test system: HL-60
SF-539 = test system: SF-539
SNB-19 = test system: SNB-19
Hs-578T = test system: Hs-578T
SR = test system: SR
SF-295 = test system: SF-295
ACHN = test system: ACHN
HOP-62 = test system: HOP-62
OVCAR-8 = test system: OVCAR-8
NCI/ADR-RES = test system: NCI/ADR-RES
U-251 = test system: U-251
HT-29 = test system: HT-29
MCF7 = test system: MCF7

Measured: GI50

C1CSCCCSCCCSCCCSCCCSC1
inactive: Malme-3M 33.3 µM | LOX IMVI 17.4 µM | UACC-257 25.5 µM | SF-268 33.1 µM | UACC-62 44.6 µM | NCI-H23 26.5 µM | RXF 393 42.9 µM | HL-60 14.2 µM | SF-539 43.7 µM | SNB-19 37.9 µM | Hs-578T 44.8 µM | SR 11.4 µM | SF-295 22.2 µM | ACHN 29.2 µM | HOP-62 47.4 µM | OVCAR-8 29 µM | NCI/ADR-RES 14.9 µM | U-251 42.5 µM | HT-29 22.9 µM | MCF7 24.5 µM

CC(Cc1ccc(O)c(O)c1)C(C)Cc1ccc(O)c(O)c1 (stereo not given) [NORDIHYDROGUAIARETIC ACID]
inactive: Malme-3M 15.9 µM | LOX IMVI 17.4 µM | UACC-257 18.2 µM | SF-268 16.3 µM | UACC-62 16 µM | NCI-H23 20.1 µM | RXF 393 13.6 µM | HL-60 2.99 µM | SF-539 17.5 µM | SNB-19 19.5 µM | Hs-578T 16.9 µM | SR 9.79 µM | SF-295 22.1 µM | ACHN 16.1 µM | HOP-62 17.1 µM | OVCAR-8 17.4 µM | NCI/ADR-RES 22.8 µM | U-251 18.7 µM | HT-29 22.9 µM | MCF7 20.2 µM

O=C(O)CCC(NC(=O)OCc1ccccc1)C(=O)NC(Cc1c[nH]cn1)C(=O)O (stereo not drawn) (Cbz-Glu-His-OH; configuration not given here)
inactive: Malme-3M > 100 µM | LOX IMVI > 100 µM | UACC-257 > 100 µM | SF-268 > 100 µM | UACC-62 > 100 µM | NCI-H23 > 100 µM | RXF 393 > 100 µM | HL-60 > 100 µM | SF-539 > 100 µM | SNB-19 > 100 µM | Hs-578T > 100 µM | SR > 100 µM | SF-295 > 100 µM | ACHN > 100 µM | HOP-62 > 100 µM | OVCAR-8 > 100 µM | NCI/ADR-RES > 100 µM | U-251 > 100 µM | HT-29 > 100 µM | MCF7 > 100 µM

Cc1ccc(-c2nnc(-c3ccc4ccccc4c3)o2)cc1
inactive: Malme-3M 5.38 µM | LOX IMVI 11.3 µM | UACC-257 22.2 µM | SF-268 9.31 µM | UACC-62 13 µM | NCI-H23 > 100 µM | RXF 393 5.87 µM | HL-60 2.93 µM | SF-539 19.6 µM | SNB-19 > 96.6 µM | Hs-578T 23 µM | SR 7.36 µM | SF-295 36.2 µM | ACHN > 100 µM | HOP-62 18 µM | OVCAR-8 12.4 µM | NCI/ADR-RES 12.7 µM | U-251 27.7 µM | HT-29 > 87.9 µM | MCF7 > 100 µM

COc1ccc(/C=C2\CCC(C)(CN(C)C)C2=O)cc1Br (stereo not given)
inactive: Malme-3M 25.8 µM | LOX IMVI 18.2 µM | UACC-257 19.5 µM | SF-268 16.5 µM | UACC-62 4.03 µM | NCI-H23 28.8 µM | RXF 393 17.9 µM | HL-60 34.8 µM | SF-539 21.5 µM | SNB-19 23 µM | Hs-578T 30.5 µM | SR 19.1 µM | SF-295 26.3 µM | ACHN 24.6 µM | HOP-62 49.3 µM | OVCAR-8 17 µM | NCI/ADR-RES 22.3 µM | U-251 21.8 µM | HT-29 21.9 µM | MCF7 13.5 µM

COC(=O)C12C3C4C1C1C2C3C41C(=O)NC(C)(C)CC(=O)O (stereo not given)
inactive: Malme-3M > 100 µM | LOX IMVI > 100 µM | UACC-257 > 100 µM | SF-268 > 100 µM | UACC-62 > 100 µM | NCI-H23 > 100 µM | RXF 393 > 100 µM | HL-60 > 100 µM | SF-539 > 100 µM | SNB-19 > 100 µM | Hs-578T > 100 µM | SR > 100 µM | SF-295 > 100 µM | ACHN > 100 µM | HOP-62 > 100 µM | OVCAR-8 > 100 µM | NCI/ADR-RES > 100 µM | U-251 > 100 µM | HT-29 > 100 µM | MCF7 > 100 µM

O=C(CNc1ccccc1[N+](=O)[O-])Nn1c(-c2ccccc2)nc2ccccc2c1=O
inactive: Malme-3M 23.9 µM | LOX IMVI 11.2 µM | UACC-257 > 10 µM | SF-268 32.4 µM | UACC-62 10.7 µM | NCI-H23 25.8 µM | RXF 393 20.1 µM | HL-60 31.7 µM | SF-539 19.7 µM | SNB-19 22.8 µM | Hs-578T 27.4 µM | SR 18.2 µM | SF-295 20.6 µM | ACHN 22.2 µM | HOP-62 20.1 µM | OVCAR-8 33.8 µM | NCI/ADR-RES 25.7 µM | U-251 19.2 µM | HT-29 17.5 µM | MCF7 19.1 µM
